Residues, ends and D or L forms follow the SMILES beside them.
Assays:
M4 melanoma cells [1] = details: 50 μg/ml
Experimental: The collagen coating concentration (5 μg/ml) was chosen based on the concentration which yielded half-maximal levels of cellular motility. The inhibitory effect of the peptides on cell motility was determined by preincubating the cells with increasing concentrations of the peptides for 20 min. prior to the assay to allow for binding to cell surface receptors. Cells in the continued presence of peptides were then added to the upper wells of chambers containing the protein-coated filters.

K 1735 M4 melanoma cells = experiment: Melanoma cell adhesion and spreading on peptide-coated Immulon 1 wells; assay type: cell-based, mouse; details: K1735 M4 melanoma; surface coated at 100 μg/ml; average of three experiments
Experimental: Subconfluent cultures of M4 melanoma cells were radiolabeled overnight with 2 μCi/ml ^3 H-thymidine. […] The melanoma cells were then washed and resuspended to a final concentration of 3-4×10^4 cells/ml in DME supplemented with 20 mM Hepes and 10 mg/ml BSA. The cells remained viable (>95%) after this procedure, based upon exclusion of trypan blue dye.
(§1) Immulon 1 microtiter plates were prepared by drying down 100 μl/well of IV-H1 peptide which had been diluted to various concentrations (1-500 μg/ml) in Voller's carbonate buffer. The ability of the IV-H1 peptide to bind the plates was determined using radioiodinated peptides (described previously) in order to be certain that any differences in cell adhesion (or spreading) were not due to differential binding to surfaces. Nonspecific cell adhesion to sites on the plastic was blocked by the use of a 10 mg/ml solution of BSA in Voller's carbonate buffer at 37° C. for 1 hr. […] Adhesion was quantitated after washing to remove nonadherent and weakly adherent cells, by solubilizing the cells with 150 μl/well of 0.5N NaOH containing 1% SDS. Bound radioactivity was quantitated in a Beckman LS 3801 liquid scintillation counter. […] Each experiment was repeated a minimum of three times, and within a given experiment, each experimental point was determined in triplicate.

[2] = system: Bovine aortic endothelial cells; experiment: Cell adhesion and spreading on coated peptide IV-H1 or type IV collagen; assay type: cell-based; details: surface coated at 100 μg/ml
Experimental: (§2) To characterize peptide IV-H1, the interaction of the peptide with other cell lines was investigated. These cell lines include the highly metastatic human melanoma cell line A375 M (also provided by Dr. Fidler), which was maintained in MEM with added vitamins and 10% FBS; and the fibrosarcoma cell line UV2237 MM, which was maintained in DME with 10% FBS. […]
as §1, with “surfaces.” for “surfaces. Nonspecific cell adhesion to sites on the plastic was blocked by the use of a 10 mg/ml solution of BSA in Voller's carbonate buffer at 37° C. for 1 hr.”, “triplicate. […]” for “triplicate.”

A375 M melanoma = experiment: as above; assay type: cell-based, human; details: surface coated at 100 μg/ml
Experimental: as §2
as §1, with “surfaces.” for “surfaces. Nonspecific cell adhesion to sites on the plastic was blocked by the use of a 10 mg/ml solution of BSA in Voller's carbonate buffer at 37° C. for 1 hr.”, “triplicate. […]” for “triplicate.”

[3] = system: Squamous carcinoma cell line (SCC9); experiment: as above; assay type: cell-based, human; details: surface coated at 100 μg/ml
Experimental: as §2
as §1, with “surfaces.” for “surfaces. Nonspecific cell adhesion to sites on the plastic was blocked by the use of a 10 mg/ml solution of BSA in Voller's carbonate buffer at 37° C. for 1 hr.”, “triplicate. […]” for “triplicate.”

UV 2237 fibrosarcoma = experiment: as above; assay type: cell-based, murine; details: surface coated at 100 μg/ml
Experimental: as §2
as §1, with “surfaces.” for “surfaces. Nonspecific cell adhesion to sites on the plastic was blocked by the use of a 10 mg/ml solution of BSA in Voller's carbonate buffer at 37° C. for 1 hr.”, “triplicate. […]” for “triplicate.”

B104 neuroblastoma = experiment: as above; assay type: cell-based, rat; details: surface coated at 100 μg/ml
From the text: (§3) To characterize peptide IV-H1, the interaction of the peptide with other cell lines was investigated. These cell lines include the highly metastatic human melanoma cell line A375 M (also provided by Dr. Fidler), which was maintained in MEM with added vitamins and 10% FBS; and the fibrosarcoma cell line UV2237 MM, which was maintained in DME with 10% FBS. Other cell lines studied included: the C6 rat glioma cell line (ATCC, #CCL107), which was maintained in DME plus 10% CS; the SCC9 human squamous carcinoma cell line (ATCC, #CRL1629), which was maintained in a 1:1 solution of DME and HAM F12 containing 10% FBS; the B65 and B104 murine neuroblastoma cell lines which were obtained from Dr. David Schubert at the Salk Institute (Schuber et al., Nature, 249, 224-227 (1974)) and maintained in F12H media with supplements; and bovine aortic endothelial cells, which were isolated and maintained as described by Herbst et al., J. Cell Biol., 106, 1365-1373 (1988), the disclosure of which is incorporated by reference herein.
as §1, with “triplicate. […]” for “triplicate.”

B65 neuroblastoma = experiment: as above; assay type: cell-based, rat; details: surface coated at 100 μg/ml
From the text: as §3
as §1, with “triplicate. […]” for “triplicate.”

C6 glioma = experiment: as above; assay type: cell-based, rat; details: surface coated at 100 μg/ml
From the text: as §3
as §1, with “triplicate. […]” for “triplicate.”

M4 melanoma cells [4] = experiment: Melanoma cell motility in microchemotaxis chambers on coated filters; assay type: cell-based, mouse; details: 10 μg/ml solution
Experimental: In light of the involvement of cell adhesion and spreading in motility, peptide IV-H1 was studied for its ability to directly promote melanoma cell motility. Peptide-mediated M4 melanoma cell motility was examined in 48-well microchemotaxis chambers (Neuroprobe, Bethesda, MD) equipped with 8 μm pore size polyvinylpyrrolidone-free polycarbonate filters by a modification of a procedure described by Herbst et al., supra. Briefly, peptides were diluted in Voller's carbonate buffer and added in triplicate 50 μl aliquots to the lower wells of the chambers. The chambers were assembled with the filters in place and incubated overnight at 37° C. to allow the peptides to adsorb to the lower surfaces of the filters. The filters were then washed and transferred to fresh chambers which contained only media (DME containing 20 mM Hepes, pH 7.4). Cells were then added to the upper wells at 20,000/well in DME/Hepes media and incubated for 6 hr. at 37° C. in a humidified CO2 chamber. Filters were then washed, fixed and stained, and the number of cells which had migrated through the filters was quantitated using an Optomax Image Analysis System as described in Herbst et al., supra. Each experiment was repeated a minimum of three times. […] This compares with melanoma cell motility of 10-fold background levels in response to a 10 μg/ml solution of intact type IV collagen (FIG. 4b).

Molecule	maximal inhibition of type IV collagen-mediated cell motility (M4 melanoma cells [1])	% AD (percent of input cells which adhered) (K 1735 M4 melanoma cells)	% AD (percent of input cells which adhered) [2]	% AD (percent of input cells which adhered) (A375 M melanoma)	% AD (percent of input cells which adhered) [3]	% AD (percent of input cells which adhered) (UV 2237 fibrosarcoma)	% AD (percent of input cells which adhered) (B104 neuroblastoma)	% AD (percent of input cells which adhered) (B65 neuroblastoma)	% AD (percent of input cells which adhered) (C6 glioma)	melanoma cell motility (M4 melanoma cells [4])
CC(C)[C@H](NC(=O)CN)C(=O)N[C@@H](CCCCN)C(=O)NCC(=O)N[C@@H](CC(=O)O)C(=O)N[C@@H](CCCCN)C(=O)NCC(=O)N[C@@H](CC(N)=O)C(=O)N1CCC[C@H]1C(=O)NCC(=O)N[C@@H](Cc1c[nH]c2ccccc12)C(=O)N1CCC[C@H]1C(=O)NCC(=O)N[C@@H](C)C(=O)N1CCC[C@H]1C(=O)O [peptide IV-H1, GVKGDKGNPGWPGAP] (H-GVKGDKGNPGWPGAP-OH)	80%	–	–	–	–	–	–	–	–	–
Type IV Collagen: Type IV collagen extracted from the Englebreth Holm Swarm sarcoma grown in lathyritic mice	–	61.9%	52.7%	50.3%	39.6%	7.9%	18.6%	7.7%	100.0%	10 -fold background levels
